Experimental data taken from patent publication US6518257B1, “1-substituted phenyl-1-(1h-imidazol-4-yl) alcohols, process for producing the same and use thereof” (Takeda Chemical Industries, Ltd., priority 1999, dated 2003).

Experiments:
[1] = target: T1, Rat Steroid C17,20-lyase (Rattus norvegicus, UniProt P11715); assay: Assay of inhibitory activity on rat steroid C17,20-lyase (testis microsomes, [1,2-3H]-17-α-hydroxyprogesterone substrate, TLC); format: biochemical; conditions: rat testis microsomes (7 μg/10 μl), 10 nM [1,2-3H]-17-α-hydroxyprogesterone, NADPH, pH 7.4, 37° C., 7 minutes; products androstenedione and testosterone
T1 construct: Testes were excised from 13-week-old male SD rats, homogenized, and centrifuged to give microsomes; from tissue; host or cells: testis microsomes of 13-week-old male SD rats
T1 sequence (P11715 1-507): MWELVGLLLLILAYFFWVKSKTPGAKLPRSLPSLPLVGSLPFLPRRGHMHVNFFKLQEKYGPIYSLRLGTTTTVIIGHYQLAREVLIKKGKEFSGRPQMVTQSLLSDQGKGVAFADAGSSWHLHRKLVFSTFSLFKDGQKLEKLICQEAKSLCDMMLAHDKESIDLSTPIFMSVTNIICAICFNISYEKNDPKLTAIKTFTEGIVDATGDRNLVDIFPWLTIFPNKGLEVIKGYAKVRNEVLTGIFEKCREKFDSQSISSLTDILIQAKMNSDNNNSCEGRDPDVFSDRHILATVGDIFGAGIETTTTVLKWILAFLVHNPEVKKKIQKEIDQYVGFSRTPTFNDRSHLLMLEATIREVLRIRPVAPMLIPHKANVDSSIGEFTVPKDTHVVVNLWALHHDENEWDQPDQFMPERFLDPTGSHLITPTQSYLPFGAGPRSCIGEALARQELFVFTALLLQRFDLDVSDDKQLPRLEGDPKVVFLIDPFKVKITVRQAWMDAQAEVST
Procedure: Assay of Inhibitory Activity on Rat Steroid C17,20-lyase
The activity was determined according to The Prostate, vol. 26, 140-150 (1995).
Testes were excised from 13-week-old male SD rats, homogenized, and centrifuged to give microsomes. [1,2-^3H]-17-α-hydroxyprogesterone having a final concentration of 10 nM, NADPH solution and test compounds were dissolved in 10 μl of 100 mM phosphate buffer (pH 7.4) and microsome protein (7 μg/10 μl) was added. The reaction mixture was incubated at 37° C. for 7 minutes. Ethyl acetate (40 μl) was added and the mixture was centrifuged. The substrate and the products (androstenedione and testosterone) in the supernatant were separated by silica gel thin layer chromatography (TLC). The spots were detected and quantitatively determined by BAS 2000 Bioimage analyzer. The concentration of the test compounds necessary to reduce the amount of the products by 50% (IC50) relative to the amount of the products without test compound (control) as 100% was calculated, and shown in Table 1.

[2] = test system: Testosterone Synthesis in Rats; assay: Assay of inhibitory activity on testosterone synthesis in rats (serum testosterone by radioimmunoassay); format: in vivo, rat; conditions: 50 mg/kg orally, 9-week-old male SD rats, serum testosterone two hours after administration, as percentage of control group
Procedure: Assay of Inhibitory Activity on Testosterone Synthesis in Rats
Test compounds (50 mg/kg) were orally administered to 9-week-old male SD (Sprague Dawley) rats. Two hours after administration of the compounds, blood was drawn and testosterone concentration in the obtained serum was measured by radioimmunoassay. The percentage (T/C, %) of the testosterone concentration of test compounds administration group to that of the control group was calculated, and taken as the inhibitory activity on testosterone synthesis.

SMILES | IC50 [1] [nM] | testosterone synthesis inhibitory activity (T/C, %) [2] [%]
CC(C)C(O)(c1ccc(-c2ccc(F)cc2)cc1)c1c[nH]cn1 (stereo not drawn) [Example 4, 1-(4′-fluoro[1,1′-biphenyl]-4-yl)-1-(1H-imidazol-4-yl)-2-methyl-1-propanol] | 28 | –
CC(C)C(O)(c1cccc(-c2ccccc2)c1)c1c[nH]cn1 (stereo not drawn) [Example 6, 1-[1,1′-biphenyl]-3-yl-1-(1H-imidazol-4-yl)-2-methyl-1-propanol] | 15 | 4.3
COc1ccc(-c2cccc(C(O)(c3c[nH]cn3)C(C)C)c2)cc1 (stereo not drawn) [Example 9, 1-(1H-imidazol-4-yl)-1-(4′-methoxy[1,1′-biphenyl]-3-yl)-2-methyl-1-propanol] | 10 | 4.6
CC(C)C(O)(c1cccc(-c2ccc(F)cc2)c1)c1c[nH]cn1 (stereo not drawn) [Example 13, 1-(4′-fluoro[1,1′-biphenyl]-3-yl)-1-(1H-imidazol-4-yl)-2-methyl-1-propanol] | 8.3 | 4.7
Cc1ccccc1-c1cccc(C(O)(c2c[nH]cn2)C(C)C)c1 (stereo not drawn) [Example 17, 1-(1H-imidazol-4-yl)-2-methyl-1-(2′-methyl[1,1′-biphenyl]-3-yl)-1-propanol] | 12 | –
CCC(O)(c1cccc(-c2ccc(F)cc2)c1)c1c[nH]cn1 (stereo not drawn) [Example 27, 1-[4′-fluoro[1,1′-biphenyl]-3-yl]-1-(1H-imidazol-4-yl)-1-propanol] | 11 | –
